In patent US11298333B1, “Methods of reducing the risk of cardiovascular events in a subject” (Amarin Pharmaceuticals Ireland Limited, priority 2018, dated 2022):

Tested on: hypertriglyceridemic patients with cardiovascular disease or at high risk for cardiovascular disease
Experiment: REDUCE-IT: safety, treatment-emergent adverse events (incl. bleeding and gastrointestinal TEAEs)
[1] = gastrointestinal TEAE, Safety population N = 4089
[2] = gastrointestinal TEAE, number of patients, Safety population N = 4089
[3] = most frequent TEAEs (≥5%), N = 4089
[4] = no significant increase vs placebo
[5] = serious bleeding TEAE by preferred term, N = 4089
[6] = serious bleeding TEAE by preferred term, number of patients, N = 4089
[7] = serious bleeding TEAE, N = 4089
[8] = serious bleeding TEAE, number of patients, N = 4089
[9] = significantly higher than placebo

Protocol: Specification of Variables and Procedures: Safety assessments included adverse events, clinical laboratory measurements (chemistry, hematology), 12-lead ECGs, vital signs (systolic and diastolic blood pressure, heart rate, respiratory rate, and body temperature), weight, waist circumference, and physical examinations as per Study Procedures in Table 1. […] All laboratory test results were evaluated by the investigator as to their clinical significance. Any observations at physical examinations or laboratory values considered by the investigator to be clinically significant were considered an adverse event.
An adverse event can therefore be any unfavorable and/or unintended sign (including an abnormal laboratory finding), symptom, or disease temporally associated with the use of an investigational medication product, whether or not related to the investigational medication product. All adverse events, including observed or volunteered problems, complaints, or symptoms, were recorded on the appropriate CRF. Each adverse event was evaluated for duration, intensity, and causal relationship with the study medication or other factors.
Serious Adverse Events: A serious adverse event (SAE) is defined as an adverse event that meets any of the following criteria: • Results in death; • Is life-threatening—The term “life-threatening” in the definition of “serious” refers to an event in which the patient was at risk of death at the time of the event. […] Important medical events that may not result in death, be life threatening, or require hospitalization were considered an SAE when, based upon appropriate medical judgment, they may have jeopardized the patient and may have required medical or surgical intervention to prevent one of the outcomes listed above.
Adverse Events of Special Interest: Bleeding-related adverse events, glucose control (fasting blood glucose and HbA1c), and indicators of hepatic disorders (e.g., ALT or AST increases >3×ULN, total bilirubin increases of ≥2×ULN) were summarized separately and compared between treatment groups.
Analysis of Safety: All analyses of safety were conducted on the safety population, which was defined as all randomized patients. The safety assessment was based on the frequency of adverse events, physical exams, vital signs and safety laboratory tests. AEs with new onset during the study between the initiation of study drug and 30 days after the last dose of study drug for each patient was considered treatment-emergent (TEAEs). This included any AE with onset prior to initiation of study drug and increased severity after the treatment initiation.
This included overall incidence rates (regardless of severity and relationship to study drug), and incidence rates for moderate or severe adverse events. A summary of SAEs and adverse events leading to early discontinuation (for ≥30 days) were presented through data listings. Patients who restarted study drug were included in the summary of AEs leading to discontinuation. Safety laboratory tests and vital signs were summarized by post-treatment change from baseline for each of the parameters using descriptive statistics by treatment group. Those patients with significant laboratory abnormalities were identified in data listings. Additional safety parameters were summarized in data listings.

CC/C=C\C/C=C\C/C=C\C/C=C\C/C=C\CCCC(=O)OCC [Icosapent Ethyl, eicosapentaenoic acid ethyl ester]
Overall adverse event rates compared with placebo (4 grams daily): similar | Positively Adjudicated Atrial Fibrillation/Flutter (hospitalization) (N = 4089): 127 (3.1%) n (%) | Serious TEAE (≥2%) Pneumonia (N = 4089): 105 (2.6%) n (%) | Serious TEAE (Safety population N = 4089): 1252 (30.6%) n (%) | Serious TEAE Leading to Death (Safety population N = 4089): 94 (2.3%) n (%) | Serious TEAE Leading to Withdrawal of Study Drug (Safety population N = 4089): 88 (2.2%) n (%) | Serious bleeding TEAE: Bleeding related disorders (Safety population N = 4089): 111 (2.7%) n (%) | Serious bleeding TEAE: Central nervous system bleeding (Safety population N = 4089): 14 (0.3%) n (%) | Serious bleeding TEAE: Gastrointestinal bleeding (Safety population N = 4089): 62 (1.5%) n (%) | Serious bleeding TEAE: Other bleeding (Safety population N = 4089): 41 (1.0%) n (%) | Subjects with at Least One TEAE (Safety population N = 4089): 3343 (81.8%) n (%) | TEAE Leading to Withdrawal of Study Drug (Safety population N = 4089): 321 (7.9%) n (%) | Constipation (TEAE), percentage of patients [1]: (5.4%) | Diarrhea (TEAE), percentage of patients [1]: (9.0%) | Gastroesophageal Reflux Disease (TEAE), percentage of patients [1]: (3.0%) | Gastrointestinal disorders (TEAE), percentage of patients [1]: (33.0%) | Nausea (TEAE), percentage of patients [1]: (4.6%) | Constipation (TEAE), patients [2]: 221 | Diarrhea (TEAE), patients [2]: 367 | Gastroesophageal Reflux Disease (TEAE), patients [2]: 124 | Gastrointestinal disorders (TEAE), patients [2]: 1350 | Nausea (TEAE), patients [2]: 190 | Treatment-emergent serious adverse events for bleeding, rate (in vivo): 2.7% | Rate of anemia (adverse event) (lower than placebo): 4.7% | Rate of diarrhea (adverse event) (lower than placebo): 9% | Rate of gastrointestinal adverse events (lower than placebo): 33.0% | TEAE Anemia [3]: 191 (4.7%) n (%) | TEAE Angina pectoris [3]: 200 (4.9%) n (%) | TEAE Arthralgia [3]: 313 (7.7%) n (%) | TEAE Atrial fibrillation [3]: 215 (5.3%) n (%) | TEAE Back pain [3]: 335 (8.2%) n (%) | TEAE Bronchitis [3]: 306 (7.5%) n (%) | TEAE Cataract [3]: 233 (5.7%) n (%) | TEAE Chest pain [3]: 273 (6.7%) n (%) | TEAE Constipation [3]: 221 (5.4%) n (%) | TEAE Cough [3]: 241 (5.9%) n (%) | TEAE Diarrhea [3]: 367 (9.0%) n (%) | TEAE Dizziness [3]: 235 (5.7%) n (%) | TEAE Dyspnea [3]: 254 (6.2%) n (%) | TEAE Fatigue [3]: 228 (5.6%) n (%) | TEAE Hypertension [3]: 320 (7.8%) n (%) | TEAE Influenza [3]: 263 (6.4%) n (%) | TEAE Nasopharyngitis [3]: 314 (7.7%) n (%) | TEAE Osteoarthritis [3]: 241 (5.9%) n (%) | TEAE Pain in extremity [3]: 235 (5.7%) n (%) | TEAE Peripheral edema [3]: 267 (6.5%) n (%) | TEAE Pneumonia [3]: 263 (6.4%) n (%) | Tolerability (no significant difference in rates of serious adverse events versus placebo): well tolerated | Serious central nervous system bleeding, rate [4]: 0.3% | Serious gastrointestinal bleeding, rate [4]: 1.5% | Serious adverse event pneumonia, rate (only serious adverse event at frequency ≥2%): 2.6% | Aortic Aneurysm Rupture, percentage [5]: (0.0%) | Brain Contusion, percentage [5]: (0.0%) | Catheter Site Hemorrhage, percentage [5]: (0.0%) | Cerebral Hemorrhage, percentage [5]: (0.0%) | Cystitis Hemorrhagic, percentage [5]: (0.0%) | Diverticulitis Intestinal Hemorrhagic, percentage [5]: (0.0%) | Diverticulum Intestinal Hemorrhagic, percentage [5]: (0.1%) | Duodenal Ulcer Hemorrhage, percentage [5]: (0.0%) | Ecchymosis, percentage [5]: (0.0%) | Epistaxis, percentage [5]: (0.2%) | Esophageal Hemorrhage, percentage [5]: (0.0%) | Extravasation Blood, percentage [5]: (0.0%) | Gastric Hemorrhage, percentage [5]: (0.0%) | Gastric Ulcer Hemorrhage, percentage [5]: (0.1%) | Gastrointestinal Angiodysplasia Hemorrhagic, percentage [5]: (0.0%) | Gastrointestinal Hemorrhage, percentage [5]: (0.6%) | Genital Hemorrhage, percentage [5]: (0.0%) | Hemarthrosis, percentage [5]: (0.0%) | Hematemesis, percentage [5]: (0.1%) | Hematochezia, percentage [5]: (0.0%) | Hematoma, percentage [5]: (0.0%) | Hematuria, percentage [5]: (0.2%) | Hemoptysis, percentage [5]: (0.0%) | Hemorrhagic Anemia, percentage [5]: (0.1%) | Hemorrhagic Duodenitis, percentage [5]: (0.0%) | Hemorrhagic Transformation Stroke, percentage [5]: (0.0%) | Hemorrhoidal Hemorrhage, percentage [5]: (0.1%) | Hemothorax, percentage [5]: (0.0%) | Immune Thrombocytopenic Purpura, percentage [5]: (0.0%) | Intra-Abdominal Hemorrhage, percentage [5]: (0.0%) | Intracranial Hemorrhage, percentage [5]: (0.0%) | Large Intestinal Hemorrhage, percentage [5]: (0.0%) | Lower Gastrointestinal Hemorrhage, percentage [5]: (0.1%) | Mallory-Weiss Syndrome, percentage [5]: (0.0%) | Melaena, percentage [5]: (0.1%) | Menorrhagia, percentage [5]: (0.0%) | Mouth Hemorrhage, percentage [5]: (0.0%) | Pancreatitis Hemorrhagic, percentage [5]: (0.0%) | Peptic Ulcer Hemorrhage, percentage [5]: (0.0%) | Pericardial Hemorrhage, percentage [5]: (0.0%) | Post Procedural Hematoma, percentage [5]: (0.0%) | Post Procedural Hematuria, percentage [5]: (0.0%) | Post Procedural Hemorrhage, percentage [5]: (0.1%) | Rectal Hemorrhage, percentage [5]: (0.2%) | Renal Hemorrhage, percentage [5]: (0.0%) | Retinal Hemorrhage, percentage [5]: (0.0%) | Retroperitoneal Hematoma, percentage [5]: (0.0%) | Retroperitoneal Hemorrhage, percentage [5]: (0.0%) | Shock Hemorrhagic, percentage [5]: (0.0%) | Subarachnoid Hemorrhage, percentage [5]: (0.0%) | Subdural Hematoma, percentage [5]: (0.2%) | Subdural Hemorrhage, percentage [5]: (0.0%) | Traumatic Hematoma, percentage [5]: (0.0%) | Traumatic Intracranial Hemorrhage, percentage [5]: (0.0%) | Ulcer Hemorrhage, percentage [5]: (0.0%) | Upper Gastrointestinal Hemorrhage, percentage [5]: (0.1%) | Urinary Bladder Hemorrhage, percentage [5]: (0.0%) | Aortic Aneurysm Rupture, patients [6]: 1 | Brain Contusion, patients [6]: 0 | Catheter Site Hemorrhage, patients [6]: 0 | Cerebral Hemorrhage, patients [6]: 0 | Cystitis Hemorrhagic, patients [6]: 2 | Diverticulitis Intestinal Hemorrhagic, patients [6]: 0 | Diverticulum Intestinal Hemorrhagic, patients [6]: 3 | Duodenal Ulcer Hemorrhage, patients [6]: 2 | Ecchymosis, patients [6]: 1 | Epistaxis, patients [6]: 7 | Esophageal Hemorrhage, patients [6]: 0 | Extravasation Blood, patients [6]: 1 | Gastric Hemorrhage, patients [6]: 1 | Gastric Ulcer Hemorrhage, patients [6]: 3 | Gastrointestinal Angiodysplasia Hemorrhagic, patients [6]: 1 | Gastrointestinal Hemorrhage, patients [6]: 26 | Genital Hemorrhage, patients [6]: 1 | Hemarthrosis, patients [6]: 0 | Hematemesis, patients [6]: 3 | Hematochezia, patients [6]: 1 | Hematoma, patients [6]: 1 | Hematuria, patients [6]: 8 | Hemoptysis, patients [6]: 1 | Hemorrhagic Anemia, patients [6]: 4 | Hemorrhagic Duodenitis, patients [6]: 0 | Hemorrhagic Transformation Stroke, patients [6]: 1 | Hemorrhoidal Hemorrhage, patients [6]: 3 | Hemothorax, patients [6]: 1 | Immune Thrombocytopenic Purpura, patients [6]: 0 | Intra-Abdominal Hemorrhage, patients [6]: 1 | Intracranial Hemorrhage, patients [6]: 0 | Large Intestinal Hemorrhage, patients [6]: 1 | Lower Gastrointestinal Hemorrhage, patients [6]: 5 | Mallory-Weiss Syndrome, patients [6]: 1 | Melaena, patients [6]: 3 | Menorrhagia, patients [6]: 1 | Mouth Hemorrhage, patients [6]: 0 | Pancreatitis Hemorrhagic, patients [6]: 1 | Peptic Ulcer Hemorrhage, patients [6]: 1 | Pericardial Hemorrhage, patients [6]: 0 | Post Procedural Hematoma, patients [6]: 1 | Post Procedural Hematuria, patients [6]: 0 | Post Procedural Hemorrhage, patients [6]: 5 | Rectal Hemorrhage, patients [6]: 10 | Renal Hemorrhage, patients [6]: 0 | Retinal Hemorrhage, patients [6]: 1 | Retroperitoneal Hematoma, patients [6]: 0 | Retroperitoneal Hemorrhage, patients [6]: 1 | Shock Hemorrhagic, patients [6]: 2 | Subarachnoid Hemorrhage, patients [6]: 2 | Subdural Hematoma, patients [6]: 9 | Subdural Hemorrhage, patients [6]: 2 | Traumatic Hematoma, patients [6]: 2 | Traumatic Intracranial Hemorrhage, patients [6]: 0 | Ulcer Hemorrhage, patients [6]: 1 | Upper Gastrointestinal Hemorrhage, patients [6]: 3 | Urinary Bladder Hemorrhage, patients [6]: 1 | Central Nervous System Bleeding (category), percentage [7]: (0.3%) | Gastrointestinal Bleeding (category), percentage [7]: (1.5%) | Other Bleeding (category), percentage [7]: (1.0%) | Patients with Bleeding-Related Disorders, percentage [7]: (2.7%) | Central Nervous System Bleeding (category), patients [8]: 14 | Gastrointestinal Bleeding (category), patients [8]: 62 | Other Bleeding (category), patients [8]: 41 | Patients with Bleeding-Related Disorders, patients [8]: 111 | Rate of atrial fibrillation (adverse event) [9]: 5.3% | Rate of peripheral edema (adverse event) [9]: 6.5%
